Laboratory results published in US20130053337A1, “GUANIDINYLATED AMINOGLYCOSIDE-LIPID CONJUGATES” (UNIVERSITY OF MANITOBA, priority 2010, published 2013).

Tests used:
S. aureus ATCC 29213 = assay: MIC, broth macrodilution (CLSI); assay type: cell-based, Staphylococcus aureus; details: S. aureus ATCC29213
Protocol: (§1) All experiments were performed in duplicate.
(§2) Bacterial isolates studied included both reference strains obtained from the American Type Culture Collection (ATCC) as well as clinical strains obtained from the CAN-ICU study which was a national surveillance study assessing the prevalence of antimicrobial resistant pathogens in Canadian intensive care units (Zhanel et al., 2008). Isolates were kept frozen in skim milk at −80° C. until minimum inhibitory concentration (MIC) testing was carried out. Following two subcultures from frozen stock, the in vitro activities of peptides were determined by macrobroth dilution in accordance with the Clinical and Laboratory Standards Institute (CLSI) 2006 guidelines (Zhanel et al., 2008). Stock solutions of peptides were prepared and dilutions made as described by CLSI. Test tubes contained doubling antimicrobial dilutions of cation adjusted Mueller-Hinton broth and inoculated to achieve a final concentration of approximately 5×10^5 cfu/ml then incubated in ambient air for 24 hours prior to reading. Colony counts were performed periodically to confirm inocula. Quality control was regularly performed using ATCC QC organisms.

MRSA ATCC 33592 = assay: MIC, broth macrodilution (CLSI); assay type: cell-based, methicillin-resistant Staphylococcus aureus; details: for MIC: MRSA ATCC33592; for fold lower MIC (MRSA) compared to analogs 6 and 7: guanidinylated vs polyamine analog
Protocol: as §1, §2

[1] = test system: S. epidermidis ATCC 14990; assay: MIC, broth macrodilution (CLSI); assay type: cell-based, Staphylococcus epidermidis; details: S. epidermidis ATCC14990
Protocol: as §1, §2

MRSE CAN-ICU 61589 [2] = assay: MIC, broth macrodilution (CLSI); assay type: cell-based, methicillin-resistant Staphylococcus epidermidis
Protocol: as §1, §2

E. faecalis ATCC 29212 = assay: MIC, broth macrodilution (CLSI); assay type: cell-based, Enterococcus faecalis; details: E. faecalis ATCC29212
Protocol: as §1, §2

E. faecium ATCC 27270 = assay: MIC, broth macrodilution (CLSI); assay type: cell-based, Enterococcus faecium; details: E. facium ATCC27270
Protocol: as §1, §2

S. pneumoniae ATCC 49619 = assay: MIC, broth macrodilution (CLSI), broth with 5% laked horse blood; assay type: cell-based, Streptococcus pneumoniae; details: S. pneumoniae ATCC49619
Protocol: as §1, §2

[3] = test system: E. coli (amikacin MIC 32 mg/L) CAN-ICU 63074; assay: MIC, broth macrodilution (CLSI); assay type: cell-based; details: E. coli CAN-ICU 63074
Protocol: as §1, §2

[4] = test system: E. coli (gentamicin-resistant) CAN-ICU 61714; assay: MIC, broth macrodilution (CLSI); assay type: cell-based; details: E. coli CAN-ICU 61714
Protocol: as §1, §2

E. coli ATCC 25922 = assay: MIC, broth macrodilution (CLSI); assay type: cell-based; details: E. coli ATCC25922
Protocol: as §1, §2

[5] = test system: P. aeruginosa (gentamicin-resistant) CAN-ICU 62308; assay: MIC, broth macrodilution (CLSI); assay type: cell-based
Protocol: as §1, §2

P. aeruginosa ATCC 27853 = assay: MIC, broth macrodilution (CLSI); assay type: cell-based; details: P. aeruginosa ATCC27853
Protocol: as §1, §2

[6] = test system: sheep red blood cell (erythrocytes); assay: Hemolytic assay (in vitro toxicity); details: for hemolytic activity at 100 mg/L: sheep erythrocytes, percent hemolysis
Protocol: Antibacterial activity against Gram-positive and Gram-negative microorganisms was tested via broth macrodilution tests using CLSI methodology (Zhanel et al., 2008). Stock solutions of cationic lipids in water were brought to a concentration of 512 mg/L. Organisms were subcultured and isolated on blood agar, suspended in 3 mL of Mueller-Hinton broth at the turbidity of a […], and diluted to approximately 10^5 cfu/mL before introduction into tubes containing serially diluted lipopeptide antibiotic in Mueller-Hinton broth. Activity testing against S. pneumoniae used broth supplemented with laked horse blood to give 5% horse blood in experimental tubes. Turbidity of lipopeptide solution in broth required creation of control tubes lacking organisms serving as turbidity controls. All tubes were incubated overnight for 16-20 h at 37° C. […] All experiments were performed in duplicate. In-vitro toxicity was determined using a sheep red blood cell hemolytic assay as previously described (Dathe et al., 1996).
In vitro toxicity was determined using a sheep red blood cell (erythrocytes) hemolytic assay (Dathe et al., 1996). […] Erythrocytes were washed and resuspended in Tris buffered saline. The cell suspension was combined with varying concentrations (low to very high) of test and control antimicrobials (e.g., aminoglycosides and APTCs). The samples were centrifuged and the absorbance of the supernatants measured at 540 nm. Tris buffered saline and Triton X were used as negative and positive controls, respectively. The toxicity was assessed by percent hemolysis.

MRSE CAN-ICU 61589 [7] = details: Zhanel et al., 2008; cited from earlier work
[8] = gentamicin-resistant (as well as neomycin B and kanamycin A-resistant) P. aeruginosa strain

Row | Compound | MIC (S. aureus ATCC 29213) [µg/mL] | MIC (MRSA ATCC 33592) [µg/mL] | fold lower MIC (MRSA) compared to analogs 6 and 7 (MRSA ATCC 33592) [fold] | MIC [1] [µg/mL] | MIC (MRSE CAN-ICU 61589 [2]) [µg/mL] | MIC (E. faecalis ATCC 29212) [µg/mL] | MIC (E. faecium ATCC 27270) [µg/mL] | MIC (S. pneumoniae ATCC 49619) [µg/mL] | MIC [3] [µg/mL] | MIC [4] [µg/mL] | MIC (E. coli ATCC 25922) [µg/mL] | MIC ([5]; P. aeruginosa CAN-ICU 62308) [µg/mL] | MIC (P. aeruginosa ATCC 27853) [µg/mL] | hemolytic activity at 100 mg/L [6] [%] | MIC [5, 8] [µg/mL] | hemolytic activity compared to polyamine analogs 3 and 15 ([6]; in words) | MIC (strain description) (MRSE CAN-ICU 61589 [7]) [µg/mL]
1 | CC(CCC(=O)NCC1OC(OC2C(O)C(NC(=N)N)CC(NC(=N)N)C2OC2OC(CNC(=N)N)C(O)C(O)C2NC(=N)N)C(O)C1OC1OC(CNC(=N)N)C(O)C(O)C1NC(=N)N)C1CCC2C3C(O)CC4CC(O)CCC4(C)C3CC(O)C12C.O=C(O)C(F)(F)F.O=C(O)C(F)(F)F.O=C(O)C(F)(F)F.O=C(O)C(F)(F)F.O=C(O)C(F)(F)F.O=C(O)C(F)(F)F (stereo not shown) [Compound 14, 1,3,2′,6′,2′″,6′″-Hexaammonium-guanidinyl-5″-deoxy-5″-N-(cholanoyl)-neomycin hexakis(trifluoroacetate)] | 16 | 16 | 8 | 4 | 8 | 32 | 16 | 64 | 32 | 64 | 64 | 32 | 128 | 2 | – | – | –
2 | CCCCCCCCCCCC(=O)NCC1OC(OC2C(O)C(NC(=N)N)CC(NC(=N)N)C2OC2OC(CNC(=N)N)C(O)C(O)C2NC(=N)N)C(O)C1OC1OC(CNC(=N)N)C(O)C(O)C1NC(=N)N.O=C(O)C(F)(F)F.O=C(O)C(F)(F)F.O=C(O)C(F)(F)F.O=C(O)C(F)(F)F.O=C(O)C(F)(F)F.O=C(O)C(F)(F)F (stereo not shown) [Compound 9, 1,3,2′,6′,2′″,6′″-Hexaammonium-guanidinyl-5″-deoxy-5″-N-(dodecanoyl)-neomycin hexakis(trifluoroacetate)] | 4 | 8 | – | 2 | 2 | 32 | 16 | 64 | 16 | 32 | 16 | 32 | 32 | 2 | – | – | –
3 | N=C(N)NCC1OC(OC2C(CNC(=O)CCCc3ccc4ccc5cccc6ccc3c4c56)OC(OC3C(O)C(NC(=N)N)CC(NC(=N)N)C3OC3OC(CNC(=N)N)C(O)C(O)C3NC(=N)N)C2O)C(NC(=N)N)C(O)C1O.O=C(O)C(F)(F)F.O=C(O)C(F)(F)F.O=C(O)C(F)(F)F.O=C(O)C(F)(F)F.O=C(O)C(F)(F)F.O=C(O)C(F)(F)F (stereo not shown) [Compound 13, 1,3,2′,6′,2′″,6′″-Hexaammonium-guanidinyl-5″-deoxy-5″-N-((4-pyrenyl)-butanoyl)-neomycin hexakis(trifluoroacetate)] | 8 | 8 | 32 | 8 | 8 | 32 | 16 | 64 | 32 | 32 | 32 | 16 | 32 | 3 | 16 | – | –
4 | CCCCCCCCCCCCCCCC(=O)NCC1OC(OC2C(O)C(NC(=N)N)CC(NC(=N)N)C2OC2OC(CNC(=N)N)C(O)C(O)C2NC(=N)N)C(O)C1OC1OC(CNC(=N)N)C(O)C(O)C1NC(=N)N.O=C(O)C(F)(F)F.O=C(O)C(F)(F)F.O=C(O)C(F)(F)F.O=C(O)C(F)(F)F.O=C(O)C(F)(F)F.O=C(O)C(F)(F)F (stereo not shown) [Compound 10, 1,3,2′,6′,2′″,6′″-Hexaammonium-guanidinyl-5″-deoxy-5″-N-(hexadecanoyl)-neomycin hexakis(trifluoroacetate)] | 4 | 4 | – | 1 | 4 | 4 | 0.5 | 32 | 32 | 64 | 32 | 8 | 32 | 13 | 8 | reduced hemolytic activity | –
5 | CCCCC/C=C\C/C=C\CCCCCCCC(=O)NCC1OC(OC2C(O)C(NC(=N)N)CC(NC(=N)N)C2OC2OC(CNC(=N)N)C(O)C(O)C2NC(=N)N)C(O)C1OC1OC(CNC(=N)N)C(O)C(O)C1NC(=N)N.O=C(O)C(F)(F)F.O=C(O)C(F)(F)F.O=C(O)C(F)(F)F.O=C(O)C(F)(F)F.O=C(O)C(F)(F)F.O=C(O)C(F)(F)F (stereo not shown) [Compound 12, 1,3,2′,6′,2′″,6′″-Hexaammonium-guanidinyl-5″-deoxy-5″-N-(9Z,12Z,octadeca-di-ene-oyl)-neomycin hexakis(trifluoroacetate)] | 8 | 16 | – | 4 | 8 | 64 | 64 | 128 | 64 | 128 | 64 | 64 | 128 | 1 | – | – | –
6 | CCCCCCCCCCCCCCCC(=O)NCC1OC(OC2C(N)CC(N)C(OC3OC(CN)C(O)C(O)C3O)C2O)C(O)C(N)C1O.O=C(O)C(F)(F)F.O=C(O)C(F)(F)F.O=C(O)C(F)(F)F.O=C(O)C(F)(F)F (stereo not shown) [Compound 15, 1,3,6′,3″-Tetraammonium-6″-deoxy-6″-N-(hexadecanoyl)-kanamycin-tetrakis-(trifluoroacetate)] | 8 | 16 | – | 2 | 2 | 8 | 8 | 64 | 32 | 32 | 32 | 64 | 64 | 20 | – | – | –
7 | CCCCCCCCCCCCCCCCCCCC(=O)NCC1OC(OC2C(O)C(NC(=N)N)CC(NC(=N)N)C2OC2OC(CNC(=N)N)C(O)C(O)C2NC(=N)N)C(O)C1OC1OC(CNC(=N)N)C(O)C(O)C1NC(=N)N.O=C(O)C(F)(F)F.O=C(O)C(F)(F)F.O=C(O)C(F)(F)F.O=C(O)C(F)(F)F.O=C(O)C(F)(F)F.O=C(O)C(F)(F)F (stereo not shown) [Compound 11] | 32 | 32 | – | 4 | 4 | 32 | 2 | 64 | 128 | 128 | 64 | 64 | 128 | 82 | – | – | –
8 | Cc1nnc(SCC2=C(C(=O)O)N3C(=O)[C@@H](NC(=O)Cn4cnnn4)[C@H]3SC2)s1 [cefazolin] | – | – | – | – | – | – | – | – | – | – | – | – | – | – | – | – | > 32
